Measurements: patent US20240217948A1, “CRYSTALLINE FORMS OF A LPA1 ANTAGONIST” (Bristol-Myers Squibb Company, priority 2022, published 2024)

How the values were obtained:
[1] = Moisture sorption isotherms; type: physicochemical; settings: 25° C., 4-95% RH (FIG. 4)
Procedure: Moisture sorption isotherms were collected in a TA Instrument VTI-SA+ Vapor Sorption Analyzer using approximately 270 mg of sample in a 250 μL ceramic pan. The sample was dried at 30° C. until the loss rate of 0.005 wt %/min was obtained for 10 minutes. The sample was tested at 25° C. and 4, 5, 15, 25, 35, 45, 50, 65, 75, 85, and 95% RH. Equilibration at each RH was reached when the rate of 0.01 wt %/min for 35 minutes was achieved or a maximum of 600 minutes.

[2] = system: idiopathic pulmonary fibrosis; settings: patients with IPF; cited from earlier work
[3] = system: progressive pulmonary fibrosis; settings: patients with PPF, versus placebo, 52-week study period; cited from earlier work

| SMILES | hygroscopicity [1] | decline in lung function [2] | progression of lung fibrosis (annual rate of decline in FVC) [3] |
| --- | --- | --- | --- |
| CCCN(C)C(=O)OCc1c(-c2ccc(O[C@H]3CCC[C@H](C(=O)O)C3)c(C)n2)nnn1C [Form A] | non-hygroscopicity |  |  |
| COC(=O)c1ccc2c(c1)NC(=O)/C2=C(\Nc1ccc(N(C)C(=O)CN2CCN(C)CC2)cc1)c1ccccc1 [nintedanib] |  | significantly reduce the decline in lung function | slower progression of lung fibrosis |
| Cc1ccc(=O)n(-c2ccccc2)c1 [pirfenidone] |  | significantly reduce the decline in lung function |  |
